Measured values reported in PubChem BioAssay (NCI).
Several values for one entry are separate records, joined by “and”; a condition that tells them apart may be missing. Equal values may be shown once.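 48-hour exposure; five concentrations; linearly interpolated endpoints. GI50 is the concentration that inhibits growth by half. TGI: total growth inhibition.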

Experiments:
Assay in all cases: NCI-60 cell line screen, 48 h
[1] = system: 786-0 renal
[2] = system: A498 renal
[3] = system: A549 NSCLC
[4] = system: ACHN renal
[5] = system: BT-549 breast
[6] = system: CAKI-1 renal
[7] = system: CCRF-CEM leukemia
[8] = system: COLO 205 colon
[9] = system: DLD-1 colon
[10] = system: DMS 114 small cell lung
[11] = system: DMS 273 small cell lung
[12] = system: DU-145 prostate
[13] = system: EKVX NSCLC
[14] = system: HCC-2998 colon
[15] = system: HCT-116 colon
[16] = system: HCT-15 colon
[17] = system: HL-60(TB) leukemia
[18] = system: HOP-18 NSCLC
[19] = system: HOP-62 NSCLC
[20] = system: HOP-92 NSCLC
[21] = system: HS 578T breast
[22] = system: HT29 colon
[23] = system: IGROV1 ovarian
[24] = system: K-562 leukemia
[25] = system: KM12 colon
[26] = system: KM20L2 colon
[27] = system: LOX IMVI melanoma
[28] = system: LXFL 529 NSCLC
[29] = system: M14 melanoma
[30] = system: M19-MEL melanoma
[31] = system: MALME-3M melanoma
[32] = system: MCF7 breast
[33] = system: MDA-MB-231 breast
[34] = system: MDA-MB-435
[35] = system: MOLT-4 leukemia
[36] = system: NCI-H226 lung
[37] = system: NCI-H23 lung
[38] = system: NCI-H460 lung
[39] = system: NCI-H522 lung
[40] = system: NCI/ADR-RES ovarian
[41] = system: OVCAR-3 ovarian
[42] = system: OVCAR-4 ovarian
[43] = system: OVCAR-5 ovarian
[44] = system: OVCAR-8 ovarian
[45] = system: PC-3 prostate
[46] = system: RPMI-8226 leukemia
[47] = system: RXF 393 renal
[48] = system: SK-MEL-2 melanoma
[49] = system: SK-MEL-28 melanoma
[50] = system: SK-MEL-5 melanoma
[51] = system: SK-OV-3 ovarian
[52] = system: SN12C renal
[53] = system: SR leukemia
[54] = system: SW-620 colon
[55] = system: T-47D breast
[56] = system: TK-10 renal
[57] = system: UACC-257 melanoma
[58] = system: UACC-62 melanoma
[59] = system: UO-31 renal
[60] = system: SF-268 CNS
[61] = system: SF-295 CNS
[62] = system: SF-539 CNS
[63] = system: SNB-19 CNS
[64] = system: SNB-75 CNS
[65] = system: SNB-78 CNS
[66] = system: U251 CNS
[67] = system: XF 498 CNS

SMILES: CC[C@H](C)C(=O)O[C@H]1C[C@@H](C)C=C2C=C[C@H](C)[C@H](CC[C@@H]3C[C@@H](O)CC(=O)O3)[C@H]21
- GI50 [1]: 12.9 µM and 6.14 µM
- TGI [1]: > 100 µM and 20.8 µM and > 30 µM
- GI50 [2]: 0.283 µM and 0.162 µM
- TGI [2]: 2.2 µM and 1.1 µM and 2.82 µM
- GI50 [3]: 12.1 µM
- TGI [3]: > 100 µM
- GI50 [4]: 3.43 µM and 1.38 µM
- TGI [4]: 29.8 µM and 6.03 µM and 23.4 µM
- GI50 [5]: 11.3 µM and 8.48 µM
- TGI [5]: > 100 µM and 25.2 µM
- GI50 [6]: 2.14 µM and 1.9 µM
- TGI [6]: 6.59 µM and 6.21 µM and 4.78 µM
- GI50 [7]: 27.4 µM and 13.5 µM
- TGI [7]: > 100 µM
- GI50 [8]: 14.6 µM and 15.3 µM
- TGI [8]: 51.3 µM and > 52.4 µM and 14.7 µM
- TGI [9]: > 30 µM
- TGI [10]: > 30 µM
- TGI [11]: > 30 µM
- GI50 [12]: 43.8 µM and 35.5 µM
- TGI [12]: > 100 µM
- GI50 [13]: 4.32 µM and 6.61 µM
- TGI [13]: > 100 µM
- GI50 [14]: 26.3 µM and 25.1 µM
- TGI [14]: > 100 µM
- GI50 [15]: 3.77 µM and 2.05 µM
- TGI [15]: 24.5 µM and 16.2 µM
- GI50 [16]: 5.46 µM and 1.47 µM
- TGI [16]: > 100 µM
- GI50 [17]: 15.9 µM and 19.9 µM
- TGI [17]: 60.6 µM and 50.6 µM and > 30 µM
- TGI [18]: > 30 µM
- TGI [19]: > 100 µM
- GI50 [20]: 0.172 µM and 0.102 µM
- TGI [20]: 0.649 µM and 0.657 µM and 0.141 µM
- GI50 [21]: 5.08 µM and 5.36 µM
- TGI [21]: > 100 µM
- GI50 [22]: 24.7 µM and 21.4 µM
- TGI [22]: > 100 µM
- GI50 [23]: 3.22 µM and 5.31 µM
- TGI [23]: 23.2 µM and 29 µM and > 30 µM
- GI50 [24]: 27.7 µM and 12.8 µM
- TGI [24]: > 100 µM
- GI50 [25]: 26.4 µM
- TGI [25]: > 100 µM
- TGI [26]: > 30 µM
- GI50 [27]: 0.932 µM
- TGI [27]: 21.3 µM and 6.82 µM and 7.71 µM
- TGI [28]: > 30 µM
- GI50 [29]: 6.25 µM and 7.89 µM
- TGI [29]: > 100 µM
- TGI [30]: > 30 µM
- GI50 [31]: 14.1 µM and 15.2 µM
- TGI [31]: > 100 µM and 31.6 µM and > 30 µM
- GI50 [32]: 32.1 µM and 14.9 µM
- TGI [32]: > 100 µM
- GI50 [33]: 0.495 µM and 0.31 µM
- TGI [33]: 3.5 µM and 1.51 µM
- GI50 [34]: 20.2 µM and 15 µM
- TGI [34]: > 100 µM
- GI50 [35]: 49.2 µM and 21.4 µM
- TGI [35]: > 100 µM and 53.4 µM and > 30 µM
- GI50 [36]: 10.1 µM and 6.22 µM
- TGI [36]: 54.7 µM and > 51 µM and > 30 µM
- GI50 [37]: 5.37 µM and 8.14 µM
- GI50 [38]: 11.4 µM and 5.59 µM
- TGI [38]: > 100 µM
- GI50 [39]: 1.98 µM and 1.66 µM
- TGI [39]: 8.53 µM and 22.3 µM
- GI50 [40]: 2.63 µM and 2.95 µM
- TGI [40]: > 100 µM
- GI50 [41]: 16.2 µM and 25.2 µM
- TGI [41]: > 100 µM
- GI50 [42]: 10.9 µM and 17.6 µM
- TGI [42]: 61.1 µM and > 55.5 µM and > 30 µM
- GI50 [43]: 12.5 µM and 10.3 µM
- TGI [43]: > 100 µM and 32.9 µM and > 30 µM
- GI50 [44]: 2.96 µM and 6.79 µM
- TGI [44]: > 100 µM
- GI50 [45]: 0.967 µM and 1.76 µM
- TGI [45]: > 100 µM
- GI50 [46]: 8.88 µM and 8.95 µM
- TGI [46]: > 100 µM and 53.7 µM and > 30 µM
- GI50 [47]: 3.48 µM
- TGI [47]: 31.8 µM and 13.8 µM and 17.3 µM
- GI50 [48]: 1.7 µM and 1.12 µM
- TGI [48]: 8.32 µM and 9.48 µM and > 30 µM
- GI50 [49]: 14.4 µM and 10.4 µM
- TGI [49]: > 100 µM and 27.1 µM and > 30 µM
- GI50 [50]: 10.7 µM and 2.97 µM
- TGI [50]: > 100 µM and 10.7 µM and 16.1 µM
- GI50 [51]: 7.58 µM and 6.68 µM
- TGI [51]: > 100 µM
- GI50 [52]: 3.02 µM
- GI50 [53]: 3 µM and 3.5 µM
- TGI [53]: 17.3 µM and 25.4 µM and > 30 µM
- GI50 [54]: 10 µM and 10.1 µM
- TGI [54]: > 100 µM
- GI50 [55]: 32.5 µM and 19.6 µM
- TGI [55]: > 100 µM
- GI50 [56]: 26.3 µM and 19.3 µM
- TGI [56]: > 100 µM
- GI50 [57]: 32.5 µM and > 46.2 µM
- TGI [57]: > 100 µM
- GI50 [58]: 2.83 µM and 2.59 µM
- TGI [58]: 18.9 µM and 17.2 µM and > 30 µM
- GI50 [59]: 11 µM and 4.7 µM
- TGI [59]: 80.7 µM and 29.6 µM and 14.2 µM

SMILES: O=c1c2cc(Br)ccc2n(C2OC(CO)C(O)C(O)C2O)c(=S)n1-c1ccccc1 (centres undefined)
- TGI [1]: > 100 µM
- TGI [2]: > 100 µM
- TGI [3]: > 100 µM
- TGI [4]: > 100 µM
- TGI [8]: > 100 µM
- TGI [9]: > 100 µM
- TGI [10]: > 100 µM
- TGI [13]: > 100 µM
- TGI [14]: > 100 µM
- TGI [15]: > 100 µM
- TGI [16]: > 100 µM
- TGI [17]: > 100 µM
- TGI [18]: > 100 µM
- TGI [19]: > 100 µM
- TGI [20]: > 100 µM
- TGI [22]: > 100 µM
- TGI [23]: > 100 µM
- TGI [24]: > 100 µM
- TGI [25]: > 100 µM
- TGI [26]: > 100 µM
- TGI [27]: > 100 µM
- TGI [28]: > 100 µM
- TGI [30]: > 100 µM
- TGI [31]: > 100 µM
- TGI [35]: > 100 µM
- TGI [36]: > 100 µM
- TGI [37]: > 100 µM
- TGI [38]: > 100 µM
- TGI [39]: > 100 µM
- TGI [41]: > 100 µM
- TGI [42]: > 100 µM
- TGI [43]: > 100 µM
- TGI [44]: > 100 µM
- TGI [46]: > 100 µM
- TGI [47]: > 100 µM
- TGI [60]: > 100 µM
- TGI [61]: > 100 µM
- TGI [62]: > 100 µM
- TGI [48]: > 100 µM
- TGI [49]: > 100 µM
- TGI [52]: > 100 µM
- TGI [63]: > 100 µM
- TGI [64]: > 100 µM
- TGI [65]: > 100 µM
- TGI [53]: > 100 µM
- TGI [54]: > 100 µM
- TGI [56]: > 100 µM
- TGI [66]: > 100 µM
- TGI [57]: > 100 µM
- TGI [59]: > 100 µM
- TGI [67]: > 100 µM
